Assay results from patent US20250327074A1 (SHAOXING INSTITUTE, ZHEJIANG UNIVERSITY, priority 2024, published 2025).

tested on: TCG codon, mammalian cells; assay: TCG codon recoding efficiency of all amino acids (Table 1); assay type: cell-based; settings: TCG codon recoding of the unnatural amino acid with the aaRS and mutation of the same table line; class symbols
Excerpt: Specific details are shown in Table 1 below, where “wt” represents the wild-type aminoacyl-tRNA synthetase, “mutation sites” indicate the positions and types of mutations related to specific unnatural amino acid binding on the wild-type aminoacyl-tRNA synthetase, and “unnatural amino acid” represents the unnatural amino acid corresponding to the mutated aminoacyl-tRNA synthetase. In the unnatural amino acid encoding efficiency, “+” indicates a recoding efficiency greater than 40%, “++” greater than 60%, and “+++” greater than 80%.
Accordingly, this application compiles all amino acids reported in the literature that are recognized by orthogonal aminoacyl-tRNA synthetases in mammalian systems and evaluates their recoding efficiency using the TCG codon as an example.

Compound | Recoding rate (%)
N[C@@H](Cc1ccc2c(c1)OCO2)C(=O)O [compound 248] | + (“+” indicates a recoding efficiency greater than 40%)
C=CCCC(=O)Nc1ccc(C[C@H](N)C(=O)O)cc1 [compound 353] | +++ (“+++” greater than 80%)
Cc1ccc2c(C[C@H](N)C(=O)O)c[nH]c2c1C [compound 295] | +++ (“+++” greater than 80%)
Nc1ccc2[nH]cc(C[C@H](N)C(=O)O)c2c1 [compound 417] | + (“+” indicates a recoding efficiency greater than 40%)
CC#CCOc1ccc(C[C@H](N)C(=O)O)cc1 [compound 239] | ++ (“++” greater than 60%)
C#CCSC[C@H](N)C(=O)O [compound 273] | + (“+” indicates a recoding efficiency greater than 40%)
N[C@@H](Cc1c[nH]c2c3c(ccc12)OCC3)C(=O)O [compound 285] | ++ (“++” greater than 60%)
N[C@@H](CSCc1ccccc1[N+](=O)[O-])C(=O)O [compound 268] | + (“+” indicates a recoding efficiency greater than 40%)
[N-]=[N+]=NCCCCCSC[C@H](N)C(=O)O [compound 389] | ++ (“++” greater than 60%)
CCOc1cc(COC[C@H](N)C(=O)O)c([N+](=O)[O-])cc1OCC [compound 402] | +++ (“+++” greater than 80%)
[N-]=[N+]=NCCCSC[C@H](N)C(=O)O [compound 387] | ++ (“++” greater than 60%)
C#Cc1cc(C[C@H](N)C(=O)O)ccc1OS(=O)(=O)F [compound 324] | ++ (“++” greater than 60%)
[N-]=[N+]=Nc1ccc2[nH]cc(C[C@H](N)C(=O)O)c2c1 [compound 416] | + (“+” indicates a recoding efficiency greater than 40%)
C=CCCCOC[C@H](N)C(=O)O [compound 409] | +++ (“+++” greater than 80%)
C=CC[Se]C[C@H](N)C(=O)O [compound 272] | + (“+” indicates a recoding efficiency greater than 40%)
N[C@@H](Cc1ccc(C#CCc2ccccc2)cc1)C(=O)O [compound 318] | +++ (“+++” greater than 80%)

same assay, conditions: TCG codon recoding of the unnatural amino acid with the aaRS and mutation of the same table line; numeric values

Compound | Recoding rate (%)
N[C@@H](Cc1cccc([N+](=O)[O-])c1)C(=O)O [compound 237] | 85%
N[C@@H](Cc1cccc(I)c1)C(=O)O [compound 286] | 61%
[N-]=[N+]=NCC(=O)Nc1ccc(C[C@H](N)C(=O)O)cc1 [compound 349] | 84%
N[C@@H](Cc1ccc(I)cc1)C(=O)O [compound 297] | 43%
N[C@@H](Cc1csc2ccccc12)C(=O)O [compound 252] | 89%
Cn1cc(C[C@H](N)C(=O)O)c2ccccc21 [compound 309] | 63%
N[C@@H](Cc1cccc(I)c1)C(=O)O [compound 329] | 56%
CCCSC(=O)CCC(=O)NCCCC[C@H](N)C(=O)O [compound 283] | 55%
N[C@@H](Cc1ccc(Br)cc1)C(=O)O [compound 328] | 51%
N[C@@H](Cc1ccc(C(=O)c2ccccc2)cc1)C(=O)O [compound 346] | 74%
COc1ccc2c(C[C@H](N)C(=O)O)c[nH]c2c1 [compound 294] | 63%
N[C@@H](Cc1ccc(Br)s1)C(=O)O [compound 259] | 87%
N[C@@H](Cc1ccc(I)cc1)C(=O)O [compound 331] | 43%
N[C@@H](Cc1ccc(O)c(O)c1)C(=O)O [compound 323] | 48%
N[C@@H](Cc1cc(Cl)ccc1Cl)C(=O)O [compound 246] | 84%
N[C@@H](Cc1ccc(C(=O)c2ccccc2)cc1)C(=O)O [compound 339] | 68%
N[C@@H](Cc1cc(F)c(F)cc1F)C(=O)O [compound 229] | 83%
N[C@@H](Cc1ccc(I)cc1)C(=O)O [compound 370] | 64%
